Here are results for seven compounds from patent EP0565377B1, “Therapeutic agents for use in the treatment of Parkinson's Disease” (Kyowa Hakko Kogyo Co., Ltd., priority 1992, dated 1993).

Series [1] concerns Parkinson's Disease Model in Mouse. The experiment in a line: Effect on locomotor activity of Parkinson's disease model in mouse (MPTP-treated mice, Automex-II horizontal activity). It is filed as in vivo, male C57BL/6 mice. As to the method: 1-Methyl-4-phenyl-1,2,3,6-tetrahydropyridine (MPTP) causes symptoms of Parkinson's disease in humans [Science, 219, 979 (1983)]. It is reported that an experimental Parkinson's disease model was obtained by administering MPTP to mice [Science, 224, 1451 (1984)]. If a compound is effective on the experimental Parkinson's disease model in mouse, the compound can be expected to have a therapeutic effect on Parkinson's disease.
The experiment was performed by using several groups of 7-weeks-old male C57BL/6 mice (weighing 20 to 21 g, Japan SLC), each group consisting of 8 mice. MPTP (Aldrich Chemical Co., Inc.) dissolved in a physiological saline solution (Otsuka Pharmaceutical Co., Ltd.) was intraperitoneally administered to each mouse once a day for five consecutive days at a dose of 30 mg/kg. A test compound was suspended in injectable distilled water (Otsuka Phamaceutical Co., Ltd.) containing Tween 80 [polyoxyethylene (20) sorbitan monooleate]. L-DOPA (Kyowa Hakko Kogyo Co., Ltd.) was suspended in 0.3% CMC (sodium carboxylmethylcellulose). Thirty minutes after the final MPTP administration, the test compound suspensions and the control suspension [injectable distilled water (Otsuka Pharmaceutical Co., Ltd.) containing Tween 80] containing no test compound were orally administered to separate groups of the mice (0.1 ml per 10 g of body weight). The amount of active movements (horizontal activity) of each mouse was measured by using Automex-II (Columbus Instruments International Corp.) for the period of 30 minutes starting 30 minutes after the administration of the test compound. The effect of the compounds was evaluated by comparing the average counts of the active movements of the test compound-administered groups with those of the control groups. A significant difference test was performed by using Student's t-test.

In series [2] the test system is Haloperidol-Induced Catalepsy. The experiment in a line: Effect on haloperidol-induced catalepsy. The settings on record: Table 4-1, test compound 10 mg/kg orally; for inhibition in vivo at 10 mg/kg: Mus musculus, po, 1 h, rate of decrease in total score based on control group, read-out: Remission Rate (%); for Number of the Animals Showing Remission: of 5 mice, catalepsy score not more than 4 points; for Total Score: total catalepsy score of 5 mice (25 points at the full), 0.3% CMC control 25. The series is classed as in vivo, male ddY mice. On the procedure:
The experiment was performed by using several groups of 5-weeks-old male ddY mice (weighing 22 to 24 g, Japan SLC), each group consisting of 5 mice. Haloperidol (Janssen Pharmaceutica) suspended in 0.3% CMC was intraperitoneally administered to each mouse at a dose of 1.0 mg/kg. Test compounds were suspended in 0.3% CMC or in injectable distilled water (Otsuka Pharmaceutical Co., Ltd.) containing Tween 80. L-DOPA (Kyowa Hakko Kogyo Co., Ltd.) and benserazide hydrochloride (Kyowa Hakko Kogyo Co., Ltd.) were suspended in 0.3% CMC. One hour after the haloperidol administration, the test compound suspensions and the control suspension [0.3% CMC or injectable distilled water (Otsuka Pharmaceutical Co., Ltd.) containing Tween 80] containing no test compound were orally administered to separate groups of the mice (0.1 ml per 10 g of body weight). One hour after the administration of the test compound, the forelimbs of each mouse and subsequently the hindlimbs of the same mouse were placed on a 4.5 cm-high, 1.0 cm-wide bar and catalepsy was estimated. All of the test compounds were orally administered at a dose of 10 mg/kg, and L-DOPA (100 mg/kg) and benserazide (25 mg/kg) were intraperitoneally administered together as a control experiment. The catalepsy score and the standard of judgment are shown below.
The effect of the compounds was evaluated by the total of the catalepsy scores of five mice in each group (25 points at the full). The groups wherein the total score was not more than 20 points were estimated to be effective. The number of the animals showing remission against catalepsy is the number of the mice for which the catalepsy score was not more than 4 points.

For another series, the system named is dd-strain male mice. The experiment in a line: Acute toxicity test (minimum lethal dose, oral). The series is classed as in vivo. The settings on record: oral administration, mortality seven days after administration, three mice per group. As to the method: Test compounds were orally administered to groups of dd-strain male mice weighing 20±1 g, each group consisting of three mice. Seven days after the administration, minimum lethal dose (MLD) of each compound was determined by observing the mortality.

The mark [3] stands for this setting: Table 3-1, test compound 10 mg/kg orally, 30 min count starting 30 min after dosing, normal control 1875 ± 77.7, MPTP control 207 ± 85.5.
Where [4] appears, read: Table 3-5, test compound 40 mg/kg orally, normal control 2252 ±210.1, MPTP control 18 ± 8.4.

As for `CCCn1c(=O)c2c(nc(/C=C/c3ccc(OC)c(OC)c3)n2C)n(CCC)c1=O` [Compound 1, (E)-8-(3,4-dimethoxystyryl)-7-methyl-1,3-dipropylxanthine], the “Amount of Active Movements (average count ± S.E.M)” value (from here on “Amount of Active Movements”) in series [1] (setting [3]) is listed as 628 ±174.5 count. Further, in series [2], the inhibition in vivo at 10 mg/kg amounted to 48%, the “Number of the Animals Showing Remission” value amounted to 5 and the “Total Score” value is given as 13 points. Further, the “MLD” value in the series with dd-strain male mice is above 300 mg/kg.

On to `COc1cc(/C=C/c2nc3c(c(=O)n(C)c(=O)n3C)n2C)cc(OC)c1OC` [Compound 2, (E)-8-(3,4,5-trimethoxystyryl)caffeine], for which the “Amount of Active Movements” value in series [1] (setting [3]) was determined as 1134 ±267.0 count. Also, in series [2], the inhibition in vivo at 10 mg/kg came out at 56%, the “Number of the Animals Showing Remission” value was found to be 5 and the “Total Score” value is given as 11 points. In addition, the “MLD” value in the series with dd-strain male mice is above 300 mg/kg.

With `CCCn1c(=O)c2c(nc(/C=C/c3ccccc3)n2C)n(CCC)c1=O` [Compound 3, (E) -7-methyl-1,3-dipropyl-8-styrylxanthine], in series [1] (Table 3-2, test compound 40 mg/kg orally, normal control 2185 ±156.2, MPTP control 38 ± 24.2), the “Amount of Active Movements” value was 228 ± 82.6 count. Besides, in series [2], the inhibition in vivo at 10 mg/kg stood at 20%, the “Number of the Animals Showing Remission” value is 4 and the “Total Score” value was 20 points. For the same compound, the “MLD” value with dd-strain male mice was above 300 mg/kg.

For `CCn1c(=O)c2c(nc(/C=C/c3cc(OC)c(OC)c(OC)c3)n2C)n(CC)c1=O` [Compound 4, (E)-1,3-diethyl-7-methyl-8-(3,4,5-trimethoxystyryl)xanthine], the “Amount of Active Movements” value in series [1] (Table 3-2, test compound 10 mg/kg orally, normal control 2185 ±156.2, MPTP control 38 ± 24.2) is listed as 961 ±164.7 count. In series [2], the inhibition in vivo at 10 mg/kg came to 20%, the “Number of the Animals Showing Remission” value is on record as 4 and the “Total Score” value came out at 20 points. In addition, the “MLD” value with dd-strain male mice is reported as above 300 mg/kg.

For the compound `CCCn1c(=O)c2nc(/C=C/c3cc(OC)c(OC)c(OC)c3)[nH]c2n(CCC)c1=O` [Compound 9, (E)-1,3-dipropyl-8-(3,4,5-trimethoxystyryl) xanthine], in series [1] (setting [4]), the “Amount of Active Movements” value is recorded as 41 ± 18.0 count. The “MLD” value in the series on dd-strain male mice was above 300 mg/kg.

For the compound `COc1cc(/C=C/c2nc3c([nH]2)c(=O)n(C)c(=O)n3C)cc(OC)c1OC` [Compound 10, (E)-8-(3,4,5-trimethoxystyryl)theophylline], in series [1] (setting [4]), the “Amount of Active Movements” value was determined as 32 ± 21.2 count. Moreover, the “MLD” value in the series on dd-strain male mice is above 300 mg/kg.

`C=CCn1c(=O)c2nc(/C=C/c3cc(OC)c(OC)c(OC)c3)[nH]c2n(CC=C)c1=O` [Compound 11, (E)-1,3-diallyl-8-(3,4,5-trimethoxystyryl) xanthine]: the “Amount of Active Movements” value in series [1] (setting [4]) stood at 20 ± 7.1 count. Also, in series [2], the inhibition in vivo at 10 mg/kg came to 20%, the “Number of the Animals Showing Remission” value is recorded as 3 and the “Total Score” value came to 20 points. In addition, the “MLD” value in the series with dd-strain male mice is on record as above 300 mg/kg.
